Series [1] concerns fatty acid synthesis in NT5 cancer cells. The series is described as follows: Inhibition of fatty acid synthesis: [14C]acetate incorporation into total lipids in NT5 cells. The format is cell-based, mouse. The conditions noted are these: 4 h treatment, [14C]acetate during last 2 h, FIG. 1. As to the method:
(See FIG. 1). 5×10^4 NT5 cells were plated in 24-well plates. Following overnight attachment, cells were treated with cerulenin and C75 diluted in DMSO at 5 mg/ml for 4 h, with control cells receiving vehicle alone. During the last 2 h of drug treatment, cells were treated with 1 μCi [^14C]acetate. Total lipids were then extracted and counted. Statistical analysis (i.e., two tailed t-tests) of the results are as follows: Control-C75 5 μg/ml, p=0.116; Control-C75 10 μg/ml, p=0.018; Control-Cerulenin 5 μg/ml, p=0.002; Control-Cerulenin 10 μg/ml, p=0.002.
NT cell lines are established from tumors that developed in transgenic mice (Reilly, R., Gottlieb, M., Ercolini, A., Machiels, J., Kane, C., Okoye, F., Muller, W., Dixon, K., and Jaffee, E., “HER-2neu Is a Tumor Rejection Target in Tolerized HER-2/neu Transgenic Mice,” Cancer Research, 60: 3569-3576, 2000; Reilly, R., Machiels, J., Emens, L., Ercolini, A., Okoye, F., Lei, R., Weintraub, D., and Jaffee, E., “The Collaboration of Both Humoral and Cellular HER-2/neu-targeted Immune Responses Is Required for the Complete Eradication of HER-2/neu-expressing Tumors,” Cancer Research, 61: 880-883, 2001), and provide an in vitro model for testing the FAS inhibitors C75 and cerulenin.

In series [2] the test system is mammary glands of FVB/N mice. Briefly: Mammary gland development in non-transgenic FVB/N control mice treated with C75. It counts as in vivo. The following applies: FVB/N animals, FIG. 9. As to the method: (§1) Fifteen 8-10 week old, neu-N transgenic mice were treated intraperitoneally (ip) with C75 at 30 mg/kg weekly, along with fifteen vehicle controls (RPMI). Three mice from the treatment and control groups were sacrificed by carbon dioxide asphyxiation at two-week intervals beginning at week two (two weeks after the first C75 treatment at 8-10 weeks of age). All animals were injected with 1 mg of BrdU two hours prior to sacrifice. Entire inguinal mammary glands were removed along with the intramammary lymph node that was grossly identifiable. Additionally, kidneys, liver and skin samples were collected from each animal. The […] from one side and the kidneys, liver and skin samples were fixed in neutral-buffered formalin, the other was fixed in Carnoy's fixative for whole-mount preparation. In addition, mammary glands from a non-transgenic age-matched FVB/N control mouse were removed for similar analysis at week 10 (age 18-20 weeks).

For series [3], the system named is mammary glands of neu-N transgenic mice. The series is described as follows: Mechanism of action: mammary gland whole mounts and immunohistochemistry in neu-N transgenic mice. The format is in vivo, mouse. The conditions noted are these: 30 mg/kg ip weekly. As to the method: as §1
Following fixation in 10% neutral-buffered formalin for 24 hours, the mammary glands were embedded in paraffin. Six 4 micron slides were prepared from each tissue block, with the first slide stained with hematoxylin and eosin. The remaining unstained sections were utilized for immunohistochemical analysis of the preneoplastic lesions and surrounding breast tissue with the following antibodies: FAS, BrdU and p21/Waf-1 (Dako, Carpinteria, Calif.), Akt and Phospho-Akt (Cell Signaling Technology, Beverly, Mass.), and neu (Santa Cruz Biotechnology, Inc., Santa Cruz, Calif.) apoptosis (ApopTag Peroxidase In Situ Oligo Ligation Kit, Serologicals Corporation, Temecula, Calif.). Staining was assessed by counting the number of positive cells per 500 total cells in the ductal and lobular structures at 400×. Statistical analysis was performed using t-tests on Prism 3 software. The Carnoy's fixed tissue was stained with carmine red as described and whole-mounted on glass slides.

The subject of series [4] is HER-2/neu breast cancer transgenic mice. Briefly: Inhibition of cancer development in HER-2/neu breast cancer transgenic mouse model. It counts as in vivo. The text has this:
Derived from the FVB/N strain, neu-N transgenic mice express the non-transforming rat neu cDNA under the control of a mammary-specific promoter. As a consequence, the mice develop spontaneous mammary adenocarcinomas beginning at approximately 125 days, with nearly all of the mice harboring tumors by 300 days (Guy, C., Webster, M., Schaller, M., Parsons, T., Cardiff, R., and Muller, W., “Expression of the neu protooncogene in the mammary epithelium of transgenic mice induces metastatic disease,” Proc. Natl. Acad. Sci. USA, 89: 10578-10582, 1992). […] Although the activated neu model has the advantage of more rapid tumor development (Guy, C., Cardiff, R., and Muller, W., “Activated neu induces rapid tumor progression,” Journal of Biological Chemistry, 271: 7673-7678, 1996), this point mutation has not been identified in human breast cancer (Lofts, F. and Gullick, W., “C-erbB2 amplification and overexpression in human tumors,” Cancer Treat. Res., 61: 161-179, 1992). Thus, the HER-2/neu breast cancer transgenic mouse model more closely resembles human disease where neu is overexpressed, not mutated.
(See FIG. 4) Thirty HER-2/neu breast cancer transgenic mice were used for the study. Fifteen (15) mice received weekly doses of C75 (30 mg/kg in 0.1 ml RPMI) for three months beginning at 5 weeks of age and 15 mice received vehicle alone. Mice were observed daily and the first appearance of breast tumors were recorded. Two (2) mice in the controls and 6 in the treated group died during the study. […] Fifty-percent (50%) of the control mice developed tumors after approximately 200 days versus 300 days for the C75 treated animals. Moreover, three treated animals remained tumor free for nearly 18 months, the duration of their lives.

For series [5], the system named is NT5 cancer cell allografts. The series is described as follows: Growth of NT5 cancer cell allografts in FVB/N mice. The conditions noted are these: 30 mg/kg intraperitoneal every six days, FIG. 3. It counts as in vivo. The procedure:
(See FIG. 3). Fourteen animals received 0.1 ml packed cultured NT5 cells in the flank. When measurable tumors appeared, seven animals were treated with C75 (30 mg/kg in 0.1 ml RPMI, intraperitoneal injection) every six days and seven animals received vehicle control. Error bars in FIG. 3 represent standard error of the mean.

The test system of a further series is NT5 cancer cells. The series is described as follows: Inhibition of NT5 cancer cell growth in vitro (crystal violet, O.D. 490 nm). The format is cell-based, mouse. The following applies: 72 hours, FIG. 2. The procedure:
(See FIG. 2). 1×10^4 cells were plated in 24-well plates. Following overnight attachment, cells were treated with C75 or cerulenin diluted in DMSO at 5 mg/ml, with control cells receiving vehicle alone. After 72 hours, cells were stained with crystal violet (0.2% in 10% methanol), solubilized in 1% SDS, and the O.D. measured at 490 nm. Two-tailed t-test: Control-C75 5 μg/ml, p=0.0003; Control-C75 10 μg/ml, p<0.0001; Control-Cerulenin 5 μg/ml, p<0.0001; Control-Cerulenin 10 μg/ml, p<0.0001.

The mark [6] stands for this setting: immunohistochemistry, versus controls and FVB/N mice.
[7] abbreviates: mammary tissue, versus controls and FVB/N mice.
The mark [8] stands for this setting: 30 mg/kg weekly for three months beginning at 5 weeks of age.

The structures appear in SMILES notation.

For `C=C1C(=O)OC(CCCCCCCC)C1C(=O)O` (stereo not drawn) [C75, tetrahydro-3-methylene-2-oxo-5-n-octyl-4-furancarboxylic acid], in series [1], the “inhibition of fatty acid synthesis in NT5 cells” value was “inhibit fatty acid synthesis in NT5 cells at levels similar to previous studies with human cell lines”. Also, in series [2], the “morphological difference in mammary structures, C75 treated versus controls” value was “no significant morphological difference”. In series [3], the “tissue restriction of the effects (other normal duct structures in skin, liver or kidney)” value is on record as “restricted to the breast epithelial cells that overexpress neu”. Also, in series [3] (following 8-10 weeks of treatment, versus vehicle controls and FVB/N animals), the “number of mammary duct structures, their thickness and number of budding epithelial structures” value was “significant reduction”. For the same molecule, in series [3] (setting [6]), the Akt expression entry is “decreased”, the FAS expression result is “decreased”, the Phospho-Akt expression entry is “decreased” and the neu expression entry is “decreased”. The p21/Waf1 expression result in series [3] (setting [6]) is “decreased”. For the same molecule, in series [3] (setting [7]), the “DNA synthesis (BrdU)” value is reported as “decreased” and the apoptotic changes result is recorded as “increased”. Moreover, in series [4] (setting [8]), the “time after which 50% of the mice developed tumors” value was approximately 300 days and the “tumor development (log-rank analysis)” value was “significantly delayed”. Besides, in series [4] (30 mg/kg weekly for three months, three of 15 treated animals), the “time three treated animals remained tumor free (duration of their lives)” value is approximately 18 months. Further, the development of cancer entry in series [4] (HER-2/neu transgenic mice, FIG. 4) is recorded as “significantly inhibited the development of cancer”. Further, the “time three animals remained tumor free (duration of their lives)” value in series [4] (as restated in the description) is listed as approximately 1.5 years. In addition, the “mice that died during the study” value in series [4] (treated group of 15 mice, 30 mg/kg weekly, 2 died in controls) is listed as 6 mice. The “growth of NT5 tumor cell allografts” value in series [5] was “significantly reduced the growth”. For the same molecule, the “growth of NT5 cancer cells (O.D. 490 nm)” value with NT5 cancer cells is “significantly reduced the growth of the cancer cells”.
Regarding `C/C=C/C/C=C/CCC(=O)[C@H]1O[C@H]1C(N)=O` [cerulenin, 2,3-epoxy-4-oxo-7,10-dodecadienoylamide, reference compound], the “inhibition of fatty acid synthesis in NT5 cells” value in series [1] is listed as “inhibit fatty acid synthesis in NT5 cells at levels similar to previous studies with human cell lines”. Moreover, in the series with NT5 cancer cells, the “growth of NT5 cancer cells (O.D. 490 nm)” value is “significantly reduced the growth of the cancer cells”.

The values are drawn from US20070142456A1, “Method for inhibiting cancer development by fatty acid synthase inhibitors” (FASgen, LLC, priority 2002, published 2007).
